Measurements taken from US7517644B1, “Method and compositions for cellular reprogramming” (priority 1991, dated 2009).

Tests used:
8226/Dox cells = assay: sensitization of P-glycoprotein-expressing drug-resistant cells to vincristine (Table XVII); assay type: cell-based, human; details: for Fold increase in Drug Sensitivity: 8226/Dox6 cells, versus media control; for sensitization to vincristine: P-glycoprotein-expressing drug-resistant 8226/Dox
Protocol: To determine relative activity among the various MDR1 antisense ODNs, they were incubated at several different ODN concentrations in cell culture medium with the human multiple myeloma cell lines 8226/Dox4 or 8226/Dox6 (gifts of Dr. William Dalton, University of Arizona Cancer Center, Tucson) (Dalton et al., Cancer Res. 46: 5125, 1986). Specifically, the human myeloma cells were incubated with the antisense ODNs for four (4) days, in a humidified, 5% CO2 atmosphere containing a reduced oxygen level of 5%, maintained by purging the culture incubator with nitrogen gas in place of ambient room air. Addition of an antioxidant to the cultures during exposure of the cells to the ODN further reduces the effects of the free radicals induced by the ODNs on cells (this effect can include increased expression of MDR1). The cell cultures were then incubated with a chemotherapeutic anti-cancer agent overnight (15-18 hrs), after which the cell cultures were washed repeatedly and then seeded into 96-well microtest plates to permit quantitative analysis of their growth. Tritiated-thymidine was added to these cultures for 18-hrs prior to termination of the assays on day 4 following exposure to the anticancer agents. Each test combination of cells, antisense ODN and anti-cancer agent was run in quadruplicate replicates.

[1] = system: DU-145 prostate cancer cells; assay: sensitization of MRP-expressing prostate cancer cells to drug (Table XVII); assay type: cell-based, human
ovarian carcinoma = assay: anticancer effect of junD ODN on solid tumors; assay type: cell-based
[2] = system: AML blast cells freshly obtained from patients; assay: junD ODN on fresh AML blasts: suspension culture viable counts and blast colony assay; assay type: cell-based, human; details: 7 days incubation, suspension culture viable cell counts
Protocol: In the initial tests, the H(1)junD oligo or a control ODN were incubated with AML blast cells for seven days. The blast cells were freshly obtained from patients with AML and were cultured and evaluated for ODN effects as described by Bayever et al.(Leukemia and Lymphoma 12: 223-231, 1994). In brief, after the incubation with ODNs, the blast cells were then washed, and adjusted to 10^5 cells per ml and continued in culture for several more days. Viable cell counts were performed every 2-3 days on suspension cultures and oligo-treated blast cells were plated in the “blast colony assay” to determine the effects of the ODNs on the leukemic stem cells.

[3] = system: drug-sensitive (parent) cancer cell lines; assay: drug sensitization of drug-sensitive (parent) cancer cell lines (Table XVII); assay type: cell-based, human
From the text: The enhanced reduction in P-glycoprotein expression due to the combined antisense and aptameric-like effects likely causes the associated reduction in cell proliferation. It has been previously shown that treating P-glycoprotein-expressing cells with monoclonal antibodies capable of binding to and blocking P-glycoprotein function leads to a substantial reduction in the proliferation of the treated cells. […] The term “aptameric-like” is used because the effect seen is seen with some sequences but not others (aptameric); aptameric-like effects are substantially more common among ODN sequences than are the usual aptameric effects. […] In general, this situation in which the antisense and an aptameric-like effect of an ODN both act to reduce expression of the same gene (e.g., MDR1) can be expected to be a very uncommon finding among antisense ODN therapeutics directed to other gene targets. […]

| Substance | cytotoxic or anticancer growth-inhibitory effect on malignant cell lines (malignant cell lines) | Fold increase in Drug Sensitivity (8226/Dox cells) | sensitization to vincristine (8226/Dox cells) | sensitization to chemotherapeutic agent ([1]; DU-145, express MRP and not P-glycoprotein) | Fold increase in Drug Sensitivity ([1]; DU-145 cells, versus media control) | anticancer effects on solid tumors (ovarian carcinoma) | antileukemic effect [2] | drug sensitization of drug-sensitive lines [3] | Fold increase in Drug Sensitivity ([3]; 8226/sensitive parent cells, versus media control) |
| --- | --- | --- | --- | --- | --- | --- | --- | --- | --- |
| H(2)junD: junD antisense ODN, GCTCGTCGGC GTGGTGGTGA (antisense GCTCGTCGGCGTGGTGGTGA; DNA, backbone and methylation of C not given here; listed as Homo sapiens) | less of a cytotoxic or anticancer growth-inhibitory effect | 1091 | sensitize | – | – | – | – | – | – |
| H(1)junD: junD antisense ODN, GTCGGCGTGG TGGTGA (antisense GTCGGCGTGGTGGTGA; DNA, backbone and methylation of C not given here; listed as Homo sapiens) | less of a cytotoxic or anticancer growth-inhibitory effect | 500 | sensitize | sensitize | 19 | anticancer effects | as great or a greater antileukemic effect than OL(1)p53 | minimal sensitizing potential | 3 |
